In BindingDB's records for doi:10.1016/0922-4106(94)90075-2 (University of Pisa, 1994):

Experiments:
[1] = biological target: Muscarinic acetylcholine receptor M3 (Homo sapiens, UniProt P20309)
[2] = biological target: T1, Muscarinic acetylcholine receptor M4 (Homo sapiens, UniProt P08173)
T1 sequence (P08173 whole entry): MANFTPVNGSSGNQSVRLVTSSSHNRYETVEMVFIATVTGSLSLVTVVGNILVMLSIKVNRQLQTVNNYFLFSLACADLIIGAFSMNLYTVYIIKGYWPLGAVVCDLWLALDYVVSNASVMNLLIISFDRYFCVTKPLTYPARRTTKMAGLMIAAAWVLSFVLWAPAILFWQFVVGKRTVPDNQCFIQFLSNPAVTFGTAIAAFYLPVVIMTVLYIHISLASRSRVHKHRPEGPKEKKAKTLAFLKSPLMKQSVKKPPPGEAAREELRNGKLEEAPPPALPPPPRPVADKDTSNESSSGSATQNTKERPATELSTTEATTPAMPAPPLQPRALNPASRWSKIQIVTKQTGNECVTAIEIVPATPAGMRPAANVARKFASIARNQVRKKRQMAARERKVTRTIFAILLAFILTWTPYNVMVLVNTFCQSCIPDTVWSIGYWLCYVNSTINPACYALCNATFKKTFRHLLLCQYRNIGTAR

[3] = biological target: T2, Muscarinic acetylcholine receptor M5 (Homo sapiens, UniProt P08912)
T2 sequence (P08912 whole entry): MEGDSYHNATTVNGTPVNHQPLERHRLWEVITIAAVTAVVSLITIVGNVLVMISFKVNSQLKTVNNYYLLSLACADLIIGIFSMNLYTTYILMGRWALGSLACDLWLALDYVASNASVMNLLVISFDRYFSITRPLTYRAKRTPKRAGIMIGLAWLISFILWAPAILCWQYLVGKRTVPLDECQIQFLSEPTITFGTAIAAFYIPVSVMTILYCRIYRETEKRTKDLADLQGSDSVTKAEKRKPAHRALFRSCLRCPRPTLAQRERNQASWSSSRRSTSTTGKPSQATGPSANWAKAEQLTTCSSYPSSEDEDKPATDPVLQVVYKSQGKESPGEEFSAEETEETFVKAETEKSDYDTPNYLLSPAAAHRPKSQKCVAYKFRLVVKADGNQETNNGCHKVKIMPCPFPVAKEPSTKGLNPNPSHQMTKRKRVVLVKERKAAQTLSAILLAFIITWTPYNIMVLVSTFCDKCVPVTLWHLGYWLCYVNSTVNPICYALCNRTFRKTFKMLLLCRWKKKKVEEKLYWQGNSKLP

[4] = biological target: T3, Muscarinic acetylcholine receptor M1 (Homo sapiens, UniProt P11229)
T3 sequence (P11229 whole entry): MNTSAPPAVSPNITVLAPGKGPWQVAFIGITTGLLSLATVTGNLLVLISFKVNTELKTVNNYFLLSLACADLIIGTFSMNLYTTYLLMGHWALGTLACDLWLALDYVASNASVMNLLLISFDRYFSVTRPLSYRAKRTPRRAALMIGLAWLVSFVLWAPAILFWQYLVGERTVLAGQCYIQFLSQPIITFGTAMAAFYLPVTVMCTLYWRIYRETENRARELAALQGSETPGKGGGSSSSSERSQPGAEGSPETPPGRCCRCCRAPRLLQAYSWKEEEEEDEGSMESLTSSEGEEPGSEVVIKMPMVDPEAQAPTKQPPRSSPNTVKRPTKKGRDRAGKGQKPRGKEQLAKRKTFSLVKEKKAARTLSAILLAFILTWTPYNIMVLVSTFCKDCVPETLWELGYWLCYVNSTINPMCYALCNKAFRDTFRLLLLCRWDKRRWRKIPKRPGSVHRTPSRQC

Chain of Muscarinic acetylcholine receptor M3 (P20309 whole entry): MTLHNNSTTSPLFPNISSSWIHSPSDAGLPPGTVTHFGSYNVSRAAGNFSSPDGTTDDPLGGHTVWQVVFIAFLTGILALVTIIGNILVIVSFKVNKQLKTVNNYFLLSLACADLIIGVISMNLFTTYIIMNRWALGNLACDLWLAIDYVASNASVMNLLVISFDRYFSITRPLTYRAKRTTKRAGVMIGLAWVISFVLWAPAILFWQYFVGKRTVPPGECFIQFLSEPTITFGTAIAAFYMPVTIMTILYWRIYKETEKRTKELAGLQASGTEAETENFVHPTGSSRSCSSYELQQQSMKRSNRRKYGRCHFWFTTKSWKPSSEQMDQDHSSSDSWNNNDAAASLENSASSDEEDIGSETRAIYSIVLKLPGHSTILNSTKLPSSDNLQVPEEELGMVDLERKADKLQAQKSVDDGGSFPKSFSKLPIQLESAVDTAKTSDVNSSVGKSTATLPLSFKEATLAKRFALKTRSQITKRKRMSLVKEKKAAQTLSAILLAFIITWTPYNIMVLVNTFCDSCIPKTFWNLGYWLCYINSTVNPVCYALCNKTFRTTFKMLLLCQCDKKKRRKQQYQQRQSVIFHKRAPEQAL

Molecule `COc1ccccc1CNCCCCCCNCCCCCCCCNCCCCCCNCc1ccccc1OC` [METHOCTRAMINE] has a Ki [1] of 277 nM, a Ki [2] of 38 nM and a Ki [3] of 313 nM.

Molecule `CN(CCCCCCCCN(C)CCCCCCN(CC(=O)N1c2ccccc2C(=O)Nc2cccnc21)CC(=O)N1c2ccccc2C(=O)Nc2cccnc21)CCCCCCNCC(=O)N1c2ccccc2C(=O)Nc2cccnc21` [NSC_132947] has a Ki [1] of 38.2 nM, a Ki [4] of 1.58 nM and a Ki [2] of 6.41 nM. It also gave a Ki [3] of 33.9 nM.
